Tested on: collagen
Experiment: Collagen content of human fibroblasts (hydroxyproline by reverse-phase HPLC)
Format: cell-based
Details: positive reference, versus control
Procedure: For this study, the fibroblasts were cultured in the same way as in paragraph 1.4.1. After the incubation period, the fibroblasts were recovered by centrifugation. The pellets were digested with […] (1 mg/cell pellet) in […] acetic acid for 24 hours at 4° C. After centrifugation at 10 000 g, the collagens were precipitated with 1 M sodium chloride (NaCl), and the precipitate was resuspended and then dialyzed. The primary amino acids were derivatized with o-phthaldehyde (OPA) acid, thus eliminating their interference. Hydroxyproline and proline were then derivatized with NBD-Cl by coupling the amino groups to NBD-CL. The NBD-Hyp was separated and identified by reverse-phase HPLC. […] The mobile phase is pre-filtered and then degassed before use. • The solutions are prepared in the following way: […] The standard curve is prepared from a solution of hydroxyproline at 50 mg/l. Successive dilutions make it possible to obtain solutions ranging from 0.5 to 40 mg/l. The derivatization and the establishment of the standard curve are carried out using 10 μl of a standard solution at various concentrations, mixed with 10 μl of the buffer. After the addition of 5 μl of OPA and agitation, the tubes are kept at ambient temperature for 5 min and then 10 μl of the NBD-Cl solution are added. […] The tubes are then removed and the orange coloration makes it possible to verify the derivatization. […]

O=C1O[C@H]([C@@H](O)CO)C(O)=C1O [Vit C, vitamin C]
% incorporation: +61%
